Among the data in patent publication US11779014B2, “Adjuvants” (SYNGENTA PARTICIPATIONS AG, priority 2017, dated 2023) are Cloud point and Mean control values, retold here.

Data set [1] in a line: Cloud point measurement (absorbance at 500 nm as a function of temperature). In kind it is physicochemical. On the procedure:
Consistent with the standard method for measuring the cloud point of surfactants, the cloud point of each of the above blends was measured at a total concentration of 1% w/w in water using a Perkin Elmer spectrophotometer fitted with a PTP6 temperature controller. The absorbance of the solution at 500 nm wavelength was determined as a function of temperature. The cloud point was recorded as the onset of a rapid increase in absorbance as the solution began to cloud.
Cloud point—the measurements relied on the same method as for ‘Example 1’
Cloud points—were measured using the same method as in Example 1.
This example provides de-gelling, cloud point and adjuvancy data for dodecyl 23 ethoxylate with n-hexyl cap and hexadecyl 20 ethoxylate with n-hexyl cap Cloud points were measured as described in example 1 for 1% aqueous solutions of the capped and uncapped surfactants both individually and as blends (see Table 30). Degelling temperatures were also measured as outlined in example 1 for 25, 30, 35 and 40% aqueous solutions of the capped and uncapped surfactants both individually and as blends (see Table 31).
This example provides de-gelling, cloud point and adjuvancy data for oleyl 20 ethoxylate with n-butyl, n-pentyl or benzyl ether caps end capped oleyl 20 ethoxylate. Cloud points were measured as described in example 1 for 1% aqueous solutions of the capped and uncapped surfactants both individually and as blends. Degelling temperatures were also measured as outlined in example 1 for 25, 30, 35 and 40% aqueous solutions o of the capped and uncapped surfactants both individually and as blends.

Data set [2] deals with Chenopodium album (CHEAL). In words: Glasshouse adjuvancy test for fomesafen (sodium salt) on CHEAL. In kind it is in vivo. The settings on record: total surfactant 0.2% w/v, 21 days. On the procedure:
Fomesafen sodium salt was added to the spray tank as a standard SL (soluble concentrate) formulation. The plants were sprayed with fomesafen (sodium salt) at rates of 100 or 200 grams of sodium fomesafen per hectare using a laboratory track sprayer which delivered the aqueous spray composition at a rate of 200 litres per hectare, using a flat fan nozzle (Teejet 11002VS) at 2 bar. The spray solutions also contained the oleyl 20EO alone or in the 1:1 blends with the capped surfactants. The adjuvants were added to the spray solution at a total surfactant rate of 0.2% w/v. All spray solutions also contained 10% w/w of iso-propanol. The weed specie and its BBCH growth stage at spraying was Chenopodium album (CHEAL; growth stage 15). Each spray test was replicated three times. The test plants were then grown in a glasshouse under controlled conditions (24/18° C. day/night; 16 hours light; 65% humidity) and watered twice a day. The efficacy of the herbicide was assessed visually and expressed as a percentage of the leaf area killed. Samples were assessed at a time period of 21 days following application.

Data set [3] relates to Chenopodium album (CHEAL). In words: Glasshouse adjuvancy test for nicosulfuron on CHEAL. It counts as in vivo. The method, then:
The biological efficacies of blends of an oleyl 20 ethoxylate uncapped surfactant with an oleyl 20 ethoxylate surfactant with an n-hexyl ether cap as adjuvants for the herbicide nicosulfuron were tested in a glasshouse against three weed species sown into standard soil in pots and cultivated under controlled conditions in a glasshouse (24/18° C. day/night; 16 hours light; 65% humidity). Nicosulfuron was added to the spray tank as a standard WG (water dispersible granule) formulation. The plants were sprayed with nicosulfuron at rates of 15 or 60 grams of pesticide per hectare using a laboratory track sprayer which delivered the aqueous spray composition at a rate of 200 litres per hectare, using a flat fan nozzle (Teejet 11002VS) at 2 bar. The adjuvants were added to the spray solution at a total rate of 0.1 or 0.2% w/v in all cases and at extra lower rates for the oleyl 20EO alone and its 1:1 blend with the oleyl 20EO n-hexyl ether to show the dose response to these adjuvants. All spray solutions also contained 10% w/w of iso-propanol. The weed species and their BBCH growth stage at spraying were Chenopodium album (CHEAL; growth stage 15), Digitaria sanguinalis (DIGSA; growth stage 14), and Commelina benghalensis (COMBE; growth stage 14). Each spray test was replicated three times. The test plants were then grown in a glasshouse under controlled conditions (24/18° C. day/night; 16 hours light; 65% humidity) and watered twice a day. The efficacy of the herbicide was assessed visually and expressed as a percentage of the leaf area killed. Samples were assessed at a time period of 21 days following application. The following tables (3-8) show the effect of blends of the two surfactants at a total concentration of 0.2 and 0.1%. In each case the blends were 1:0, 3:1, 1:1, 1:3 and 0:1 w/w of oleyl 20EO:oleyl 20 EO n-hexyl ether.
The biological efficacies of blends of oleyl 20 ethoxylate and oleyl 20EO ethoxylate with a benzoate cap as adjuvants for the herbicide nicosulfuron were tested in a glasshouse using the same method as for ‘Example 1’ but against just two weed species and with just 0.2% w/v total adjuvant concentration. The weed species and their BBCH growth stage at spraying HI were Chenopodium album (CHEAL; growth stage 13-15) and Digitaria sanguinalis (DIGSA; growth stage 14-22).
The biological efficacies of 1:1 blends of an oleyl 20 ethoxylate uncapped surfactant with oleyl 20E ethoxylate surfactants with hexanoyl, n-octanoyl or 2-ethyl hexanoyl ester caps as adjuvants for the herbicide nicosulfuron were tested in a glasshouse using the same method as for ‘Example 1’ but against just one weed species and at 0.2% w/v tital adjuvant concentration. The weed species and its BBCH growth stage at spraying was Chenopodium album (CHEAL; growth stage 15).

Data set [4] has as its system Commelina benghalensis (COMBE). In words: Glasshouse adjuvancy test for mesotrione on COMBE. It counts as in vivo. As to conditions: total surfactant 0.2% w/v, 21 days. On the procedure:
(§1) Mesotrione was added to the spray tank as a standard SC (suspension concentrate) formulation. The plants were sprayed with mesotrione at rates of 30 or 60 grams of pesticide per hectare using a laboratory track sprayer which delivered the aqueous spray composition at a rate of 200 litres per hectare, using a flat fan nozzle (Teejet 11002VS) and an application volume of 200 litre/ha (at 2 bar). The spray solutions also contained the oleyl 20EO alone or in 1:1 blends with the capped surfactants. The adjuvants were added to the spray solution at a total surfactant rate of 0.2% w/v. All spray solutions also contained 10% w/w of iso-propanol. The weed species and their BBCH growth stage at spraying were Brachiaria platyphylla (BRAPL; growth stage 12-13), Commelina benghalensis (COMBE; growth stage 12-14) and Digitaria sanguinalis (DIGSA; growth stage 13). Each spray test was replicated three times. The test plants were then grown in a glasshouse under controlled conditions (24/18° C. day/night; 16 hours light; 65% humidity) and watered twice a day. The efficacy of the herbicide was assessed visually and expressed as a percentage of the leaf area killed. Samples were assessed at a time period of 21 days following application

Data set [5] concerns Brachiaria platyphylla (BRAPL). In words: Glasshouse adjuvancy test for mesotrione on BRAPL. In kind it is in vivo. The settings on record: total surfactant 0.2% w/v, 21 days. On the procedure:
as §1

Setting [6] is: total concentration 1% w/w in water, Table 2.
Setting [7] is: nicosulfuron 15 g ai/ha, 0.1% total surfactant concentration, 21 days, Table 6.
Where [8] appears, read: nicosulfuron 15 g ai/ha, 0.2% total surfactant concentration, 21 days, Table 5.
[9] abbreviates: nicosulfuron 60 g ai/ha, 0.1% total surfactant concentration, 21 days, Table 6.
The mark [10] stands for this setting: nicosulfuron 60 g ai/ha, 0.2% total surfactant concentration, 21 days, Table 5.

`CCCCCCCC/C=C\CCCCCCCCOCCOCCOCCOCCOCCOCCOCCOCCOCCOCCOCCOCCOCCOCCOCCOCCOCCOCCOCCOCCO` [Oleyl 20EO, oleyl 20 ethoxylate]: the Cloud point is above 90.0 °C in data set [1] (1% aqueous solutions, Table 34); above 95.0 °C in data set [1] (1%, Table 15); above 95.0 °C in data set [1] (1%, Table 20); above 90 °C in data set [1] (setting [6]). The Mean control in data set [2] (fomesafen (sodium salt) 100 g ai/ha) was 68.3%; in data set [2] (fomesafen (sodium salt) 200 g ai/ha), 68.3%; in data set [3] (dose response, nicosulfuron 15 g ai/ha, adjuvant 0.05%), 81.7%; in data set [3] (dose response, nicosulfuron 15 g ai/ha, adjuvant 0.1%), 86.7%; in data set [3] (dose response, nicosulfuron 15 g ai/ha, adjuvant 0.2%), 83.3%; in data set [3] (dose response, nicosulfuron 60 g ai/ha, adjuvant 0.05%), 83.3%. Besides, the Mean control turned out to be 80.0% in data set [3] (dose response, nicosulfuron 60 g ai/ha, adjuvant 0.1%); 80.0% in data set [3] (dose response, nicosulfuron 60 g ai/ha, adjuvant 0.2%); 86.7% in data set [3] (setting [7]); 83.3% in data set [3] (setting [8]); 66.7% in data set [3] (nicosulfuron 15 g ai/ha, 0.2% w/v total adjuvant, Example 3, growth stage 13-15); 76.8% in data set [3] (nicosulfuron 15 g ai/ha, 0.2% w/v total adjuvant, Example 4, growth stage 15). For the same molecule, the Mean control in data set [3] (setting [9]) came out at 80%; in data set [3] (setting [10]), 80%; in data set [3] (nicosulfuron 60 g ai/ha, 0.2% w/v total adjuvant, Example 3, growth stage 13-15) it was 68.3%; in data set [3] (nicosulfuron 60 g ai/ha, 0.2% w/v total adjuvant, Example 4, growth stage 15), 71.7%; in data set [4] (mesotrione 30 g ai/ha), 66.7%; in data set [4] (mesotrione 60 g ai/ha), 76.7%. Further, the Mean control in data set [5] (mesotrione 30 g ai/ha) was found to be 56.7%; in data set [5] (mesotrione 60 g ai/ha), 71.7%.

For the molecule Oleyl 20EO n-hexyl ether, in data set [1] (setting [6]), the Cloud point was determined as 52.0 °C. The Mean control in data set [3] (setting [7]) is 85%; in data set [3] (setting [8]), 81.7%; in data set [3] (setting [9]), 85%; in data set [3] (setting [10]) it was 88.3%.
